Earlier results, collected in patent US8071125B2, “Transdermal patch containing isosorbide dinitrate and bisoprolol” (Beijing Kangbeide Pharmaceutical Technology Development …, priority 2005, dated 2011).

System: Patients with Primary Hypertension
Settings: oral administration

In the case of `CC(C)NCC(O)COc1ccc(COCCOC(C)C)cc1` (stereo not shown) [Bisoprolol], the “average reduction of the heart rate after the treatment” value is given as 15.1%.
